In publication PMC5397484, “Gel-Based Purification and Biochemical Study of Laccase Isozymes from Ganoderma sp. and Its Role in Enhanced Cotton Callogenesis” (Frontiers in Microbiology, 2017):
Read-outs that look alike come from different tables or passages of the source. Each block holds one compound with its values, some of them ahead of it.

Assays:
Experiment in all cases: absorbance […] nm, Eadie-Hofstee plot
Type in all cases: biochemical, Ganoderma lucidum
Glac L4 [1] = system: T1, Glac L4; details: 0.1 M sodium acetate pH 5.0 (methods; table title says optimal pH); 0.02-0.5 mM substrate; read-out: ABTS / Km
T1 construct: gene GL16398; native secreted isozyme, copper-induced culture, native-PAGE purified; 40-66 kDa range for all isozymes, described as multimeric; gene not assigned (GL tags are of another genome strain)

Glac L3 [2] = system: T2, Glac L3; details: 0.1 M sodium acetate pH 5.0 (methods; table title says optimal pH); 0.02-0.5 mM substrate; read-out: ABTS / Km
T2 construct: gene GL16398; native secreted isozyme, copper-induced culture, native-PAGE purified; 40-66 kDa range for all isozymes, described as multimeric; gene not assigned (GL tags are of another genome strain)

Glac L2 [3] = system: T3, Glac L2; details: 0.1 M sodium acetate pH 5.0 (methods; table title says optimal pH); 0.02-0.5 mM substrate; read-out: ABTS / Km
T3 construct: gene GL16398; native secreted isozyme, copper-induced culture, native-PAGE purified; 40-66 kDa range for all isozymes, described as multimeric; gene not assigned (GL tags are of another genome strain)

Glac L5 [4] = system: T4, Glac L5; details: 0.1 M sodium acetate pH 5.0 (methods; table title says optimal pH); 0.02-0.5 mM substrate; read-out: ABTS / Km
T4 construct: gene GL16398; native secreted isozyme, copper-induced culture, native-PAGE purified; 40-66 kDa range for all isozymes, described as multimeric; gene not assigned (GL tags are of another genome strain)

Glac L4 [5] = system: T1, Glac L4; details: citrate-phosphate pH 4.0 (methods; table title says optimal pH); 0.1-0.8 mM substrate; read-out: O-tolidine / Km
Glac L2 [6] = system: T3, Glac L2; details: citrate-phosphate pH 4.0 (methods; table title says optimal pH); 0.1-0.8 mM substrate; read-out: O-tolidine / Km
Glac L3 [7] = system: T2, Glac L3; details: citrate-phosphate pH 4.0 (methods; table title says optimal pH); 0.1-0.8 mM substrate; read-out: O-tolidine / Km
Glac L5 [8] = system: T4, Glac L5; details: citrate-phosphate pH 4.0 (methods; table title says optimal pH); 0.1-0.8 mM substrate; read-out: O-tolidine / Km
Glac L2 [9] = system: T3, Glac L2; details: citrate-phosphate pH 4.0 (methods; table title says optimal pH); 0.5-3.0 mM substrate; read-out: Guaiacol / Km
Glac L3 [10] = system: T2, Glac L3; details: citrate-phosphate pH 4.0 (methods; table title says optimal pH); 0.5-3.0 mM substrate; read-out: Guaiacol / Km
Glac L4 [11] = system: T1, Glac L4; details: citrate-phosphate pH 4.0 (methods; table title says optimal pH); 0.5-3.0 mM substrate; read-out: Guaiacol / Km
Glac L5 [12] = system: T4, Glac L5; details: citrate-phosphate pH 4.0 (methods; table title says optimal pH); 0.5-3.0 mM substrate; read-out: Guaiacol / Km

Km (Glac L4 [1]): 50 µM
Km (Glac L3 [2]): 81 µM
Km (Glac L2 [3]): 83 µM
Km (Glac L5 [4]): 15 µM
SMILES: CCn1c(=NN=c2sc3cc(S(=O)(=O)O)ccc3n2CC)sc2cc(S(=O)(=O)O)ccc21 [ABTS, 2,2′-azino-bis(3-ethylbenzothiazoline-6-sulfonic acid)]

SMILES: Cc1cc(-c2ccc(N)c(C)c2)ccc1N [O-tolidine]
Km (Glac L4 [5]): 365 µM
Km (Glac L2 [6]): 724 µM
Km (Glac L3 [7]): 507 µM
Km (Glac L5 [8]): 78 µM

Km (Glac L2 [9]): 115 µM
Km (Glac L3 [10]): 80 µM
Km (Glac L4 [11]): 96 µM
Km (Glac L5 [12]): 126 µM
SMILES: COc1ccccc1O [guaiacol]
